Experimental data from patent US11168073B2, “3,3-difluoroallylamines or salts thereof and pharmaceutical compositions comprising the same” (YUHAN CORPORATION, priority 2018, dated 2021).
Counter-ions that a name gives are not always drawn. Like-named read-outs stand apart in the source and are kept apart here.

Columns and labels:
Format in all cases: biochemical
[1] = target: T1, recombinant human MAO-B (monoamine oxidase-B) (Homo sapiens, UniProt P27338); experiment: Activity evaluation on recombinant human MAO-B (Amplex Red/HRP-coupled assay, 1 mM benzylamine substrate); conditions: read-out: Inhibitory Activity (IC50, nM) MAO-B
T1 construct: purchased Sigma-Aldrich
T1 sequence (P27338 1-520): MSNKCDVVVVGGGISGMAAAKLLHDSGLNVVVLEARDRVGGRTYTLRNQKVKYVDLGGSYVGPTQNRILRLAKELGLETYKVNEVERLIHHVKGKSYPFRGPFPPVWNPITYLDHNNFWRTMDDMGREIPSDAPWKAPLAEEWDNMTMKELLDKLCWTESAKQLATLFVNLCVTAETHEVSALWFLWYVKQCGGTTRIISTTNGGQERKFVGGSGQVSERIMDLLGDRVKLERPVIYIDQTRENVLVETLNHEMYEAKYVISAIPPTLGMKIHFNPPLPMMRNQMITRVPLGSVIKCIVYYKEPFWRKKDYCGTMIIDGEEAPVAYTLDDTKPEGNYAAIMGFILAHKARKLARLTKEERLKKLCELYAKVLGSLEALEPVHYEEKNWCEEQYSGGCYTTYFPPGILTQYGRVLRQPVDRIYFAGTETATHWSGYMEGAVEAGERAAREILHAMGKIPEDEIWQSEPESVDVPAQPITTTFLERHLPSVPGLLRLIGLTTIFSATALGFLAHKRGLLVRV
How it was run: (§1)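 Enzyme activity was measured as fluorescence rate (ex 544, em 590 nm) from resorufin formed by HRP-coupled H2O2 oxidation of 200 uM Amplex Red. Compounds were first incubated 30 min at 37 °C with enzyme at pH 7.4; substrates were 0.5 mM tyramine (MAO-A), 1 mM benzylamine (MAO-B) and 1 mM putrescine (DAO).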

[2] = target: T2, recombinant human MAO-A (monoamine oxidase-A) (Homo sapiens, UniProt P21397); experiment: Activity evaluation on recombinant human MAO-A (Amplex Red/HRP-coupled assay, 0.5 mM tyramine substrate); conditions: read-out: Inhibitory Activity (IC50, nM) MAO-A
T2 construct: purchased Sigma-Aldrich
T2 sequence (P21397 1-527): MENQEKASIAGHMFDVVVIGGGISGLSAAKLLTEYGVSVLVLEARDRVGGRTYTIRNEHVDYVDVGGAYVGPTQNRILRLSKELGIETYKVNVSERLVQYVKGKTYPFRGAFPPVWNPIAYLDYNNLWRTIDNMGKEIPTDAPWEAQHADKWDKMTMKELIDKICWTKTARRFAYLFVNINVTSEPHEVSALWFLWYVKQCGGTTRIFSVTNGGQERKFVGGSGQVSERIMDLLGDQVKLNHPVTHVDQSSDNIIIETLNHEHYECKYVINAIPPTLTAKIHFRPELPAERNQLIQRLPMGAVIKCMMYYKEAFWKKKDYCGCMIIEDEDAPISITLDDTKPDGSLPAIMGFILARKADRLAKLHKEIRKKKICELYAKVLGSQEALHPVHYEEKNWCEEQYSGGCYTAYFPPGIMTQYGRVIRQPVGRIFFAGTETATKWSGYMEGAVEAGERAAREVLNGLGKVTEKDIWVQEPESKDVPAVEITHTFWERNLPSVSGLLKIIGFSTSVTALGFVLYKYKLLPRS
How it was run: as §1

[3] = target: T3, recombinant human DAO (diamine oxidase) (Homo sapiens, UniProt P19801); experiment: Activity evaluation on recombinant human DAO (Amplex Red/HRP-coupled assay, 1 mM putrescine substrate); conditions: read-out: Inhibitory Activity (IC50, nM) DAO
T3 construct: purchased R&D systems
T3 sequence (P19801 20-751): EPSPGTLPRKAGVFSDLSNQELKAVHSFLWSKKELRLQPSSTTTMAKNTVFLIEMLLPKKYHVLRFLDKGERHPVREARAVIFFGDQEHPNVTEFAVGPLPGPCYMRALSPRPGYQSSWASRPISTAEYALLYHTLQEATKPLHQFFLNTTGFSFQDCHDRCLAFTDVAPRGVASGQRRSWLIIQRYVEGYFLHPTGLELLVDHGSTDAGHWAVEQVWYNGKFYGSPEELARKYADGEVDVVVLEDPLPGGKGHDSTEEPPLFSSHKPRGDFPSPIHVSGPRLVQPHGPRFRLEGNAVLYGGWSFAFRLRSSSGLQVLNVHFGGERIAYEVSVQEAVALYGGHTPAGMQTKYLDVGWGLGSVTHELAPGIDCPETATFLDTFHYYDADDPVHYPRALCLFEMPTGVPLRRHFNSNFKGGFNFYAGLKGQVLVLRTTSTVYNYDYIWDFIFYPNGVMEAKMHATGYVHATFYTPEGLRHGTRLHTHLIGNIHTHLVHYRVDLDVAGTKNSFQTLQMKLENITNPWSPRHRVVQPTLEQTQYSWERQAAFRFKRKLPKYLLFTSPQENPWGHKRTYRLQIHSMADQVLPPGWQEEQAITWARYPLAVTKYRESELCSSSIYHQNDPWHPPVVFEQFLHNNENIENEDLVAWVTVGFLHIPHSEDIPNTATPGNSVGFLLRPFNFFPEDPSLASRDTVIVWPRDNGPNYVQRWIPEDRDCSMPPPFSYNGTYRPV
How it was run: as §1

[4] = target: T4, recombinant human VAP-1 (Homo sapiens, UniProt Q16853); experiment: Activity evaluation on recombinant human VAP-1 (Amplex Red/HRP-coupled hydrogen peroxide assay, benzylamine substrate); conditions: read-out: Inhibitory Activity (IC50, nM) human VAP-1
T4 construct: purchased R&D systems
T4 sequence (Q16853 1-763): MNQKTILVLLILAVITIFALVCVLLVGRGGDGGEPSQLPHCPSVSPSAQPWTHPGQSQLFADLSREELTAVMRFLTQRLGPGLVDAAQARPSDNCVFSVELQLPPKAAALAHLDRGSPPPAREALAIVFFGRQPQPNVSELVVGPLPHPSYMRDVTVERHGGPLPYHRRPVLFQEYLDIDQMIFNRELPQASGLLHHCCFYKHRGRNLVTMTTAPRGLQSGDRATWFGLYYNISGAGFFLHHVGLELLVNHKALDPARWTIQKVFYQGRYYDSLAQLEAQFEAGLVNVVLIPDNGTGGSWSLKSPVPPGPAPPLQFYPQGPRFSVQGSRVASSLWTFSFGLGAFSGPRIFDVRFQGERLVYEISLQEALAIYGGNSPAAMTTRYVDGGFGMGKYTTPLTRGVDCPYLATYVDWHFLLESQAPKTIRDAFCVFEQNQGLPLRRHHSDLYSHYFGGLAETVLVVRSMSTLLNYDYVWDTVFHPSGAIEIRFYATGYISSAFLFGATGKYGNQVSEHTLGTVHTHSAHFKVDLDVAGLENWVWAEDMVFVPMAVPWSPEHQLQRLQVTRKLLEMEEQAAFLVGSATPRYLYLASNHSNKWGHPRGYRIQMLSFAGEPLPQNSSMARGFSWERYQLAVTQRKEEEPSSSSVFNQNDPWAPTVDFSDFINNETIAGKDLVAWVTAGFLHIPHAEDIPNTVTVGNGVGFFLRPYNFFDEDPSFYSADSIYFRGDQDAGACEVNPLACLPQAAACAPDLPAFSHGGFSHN
How it was run: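 Recombinant human VAP-1 in 50 mM sodium phosphate pH 7.4 preincubated 30 min at 37 °C with compound (8-point 1:3 series, <1% DMSO), then 1 mM benzylamine, 200 uM Amplex Red, 1 U/mL HRP added. H2O2-derived resorufin fluorescence (ex 544/em 590) followed 1–2 h; IC50 from four-parameter fit of rate inhibition.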

[5] = recombinant human VAP-1, 30 min preincubation at 37° C., 1 mM benzylamine
[6] = recombinant human VAP-1, benzylamine substrate

Row | Structure (SMILES) | IC50 ([1]; 1 mM benzylamine) [nM] | IC50 ([2]; 0.5 mM tyramine) [nM] | IC50 ([3]; 1 mM putrescine) [nM] | IC50 [4, 5] [nM] | IC50 ([1]; 1 mM benzylamine substrate) [nM] | IC50 ([2]; 0.5 mM tyramine substrate) [nM] | IC50 ([3]; 1 mM putrescine substrate) [nM] | IC50 [4, 6] [nM]
1 | CN1C(=O)CCc2cc(-c3ccc(Cn4cnn(CC(CN)=C(F)F)c4=O)s3)ccc21 [Example 138, 6-[5-[[1-[2-(aminomethyl)-3,3-difluoro-allyl]-5-oxo-1,2,4-triazol-4-yl]methyl]-2-thienyl]-1-methyl-3,4-dihydroquinolin-2-one Trifluoroacetate] | 15000 | > 100000 | 13000 | 0.1 | – | – | – | –
2 | COc1cc(-c2ccc(Cn3cnn(CC(CN)=C(F)F)c3=O)s2)cc(OC)c1OC [Example 105, 2-[2-(aminomethyl)-3,3-difluoro-allyl]-4-[[5-(3,4,5-trimethoxyphenyl)-2-thienyl]methyl]-1,2,4-triazol-3-one Trifluoroacetate] | 6500 | > 100000 | > 10000 | 1.5 | – | – | – | –
3 | CN(C)c1ccc(-c2ccccc2Cn2cnn(CC(CN)=C(F)F)c2=O)cn1 [Example 281, 2-[2-(aminomethyl)-3,3-difluoro-allyl]-4-[[2-[6-(dimethylamino)-3-pyridyl]phenyl]methyl]-1,2,4-triazol-3-one Trifluoroacetate] | – | – | – | – | > 100000 | > 100000 | 4860 | 307
4 | NCC(Cn1ncn(Cc2ccc(-c3cn[nH]c3)s2)c1=O)=C(F)F [Example 292, 2-[2-(aminomethyl)-3,3-difluoro-allyl]-4-[[5-(1H-pyrazol-4-yl)-2-thienyl]methyl]-1,2,4-triazol-3-one Trifluoroacetate] | – | – | – | – | > 100000 | 86200 | > 100000 | 2.7
5 | NCC(Cn1ncn(Cc2ccc(-c3ccc(N4CCNCC4)nc3)s2)c1=O)=C(F)F [Example 114, 2-[2-(aminomethyl)-3,3-difluoro-allyl]-4-[[5-(6-piperazin-1-yl-3-pyridyl)-2-thienyl]methyl]-1,2,4-triazol-3-one Ditrifluoroacetate] | > 100000 | > 100000 | 970 | 4.9 | – | – | – | –
6 | NCC(Cn1ncn(-c2ccc(-c3ccc(N4CCNCC4)cc3)cc2F)c1=O)=C(F)F [Example 32, 2-[2-(aminomethyl)-3,3-difluoro-allyl]-4-[2-fluoro-4-(4-piperazin-1-ylphenyl)phenyl]-1,2,4-triazol-3-one Ditrifluoroacetate] | 17000 | > 100000 | 670 | 1.3 | – | – | – | –
7 | Cc1cc(-n2cnn(CC(CN)=C(F)F)c2=O)cnc1-c1ccc(N(C)C)nc1 [Example 78, 2-[2-(aminomethyl)-3,3-difluoro-allyl]-4-[6-[6-(dimethylamino)-3-pyridyl]-5-methyl-3-pyridyl]-1,2,4-triazol-3-one Trifluoroacetate] | 9800 | > 100000 | 57 | 0.6 | – | – | – | –
8 | NCC(Cn1ncn(Cc2cc3ccc(-c4ccc(C(F)(F)F)nc4)cc3s2)c1=O)=C(F)F [Example 199, 2-[2-(aminomethyl)-3,3-difluoro-allyl]-4-[[6-[6-(trifluoromethyl)-3-pyridyl]benzothiophen-2-yl]methyl]-1,2,4-triazol-3-one Trifluoroacetate] | – | – | – | – | 1100 | > 100000 | 15000 | 1.7
9 | COCCNc1ncc(-c2ccc(Cn3cnn(CC(CN)=C(F)F)c3=O)s2)cn1 [Example 118, 2-[2-(aminomethyl)-3,3-difluoro-allyl]-4-[[5-[2-(2-methoxyethylamino)pyrimidin-5-yl]-2-thienyl]methyl]-1,2,4-triazol-3-one Trifluoroacetate] | > 100000 | > 100000 | 40000 | 3.5 | – | – | – | –
10 | CS(=O)(=O)c1ccc(-c2cccc(-n3cnn(CC(CN)=C(F)F)c3=O)n2)cc1 [Example 46, 2-[2-(aminomethyl)-3,3-difluoro-allyl]-4-[6-(4-methylsulfonylphenyl)-2-pyridyl]-1,2,4-triazol-3-one Trifluoroacetate] | > 100000 | > 100000 | 190 | 0.9 | – | – | – | –
11 | Cc1cc(-c2ccc3c(c2)OCO3)sc1Cn1cnn(CC(CN)=C(F)F)c1=O [Example 158, 2-[2-(aminomethyl)-3,3-difluoro-allyl]-4-[[5-(1,3-benzodioxol-5-yl)-3-methyl-2-thienyl]methyl]-1,2,4-triazol-3-one Trifluoroacetate] | 3800 | > 100000 | > 100000 | 7 | – | – | – | –
12 | Cc1c(-c2cccc(-c3nc[nH]n3)c2)cccc1-n1cnn(CC(CN)=C(F)F)c1=O [Example 263, 2-[2-(aminomethyl)-3,3-difluoro-allyl]-4-[2-methyl-3-[3-(1H-1,2,4-triazol-3-yl)phenyl]phenyl]-1,2,4-triazol-3-one Trifluoroacetate] | – | – | – | – | > 100000 | > 100000 | > 100000 | 29
